Consider one compound from publication PMC8453848, “Effect of GLPG1205, a GPR84 Modulator, on CYP2C9, CYP2C19, and CYP1A2 Enzymes: In Vitro and Phase 1 Studies” (Clinical Pharmacology in Drug Development, 2021).

A short description of data set [1]: Test of solubility of GLPG1205 in culture medium for incubations. The format is physicochemical. The following applies: culture medium for incubation; final DMSO percentage 0.4%; read-out: limit of solubility in culture medium for incubations. How it is done:
Solubility and cytotoxicity experiments were performed prior to incubation of GLPG1205 with cells.
Test of Solubility Prior to incubation of GLPG1205 with cells, a preliminary test of solubility was performed. Various stock solutions of GLPG1205 in dimethylsulfoxide (DMSO) were prepared. Different solutions were prepared by diluting the stock solutions in culture medium for incubation to obtain 100, 200, 250, 400 and 500 µM with different final percentages of solvent (maximum 0.5% DMSO, volume/volume [v/v]).

The test system of data set [2] is CYP1A2. The data set can be described thus: in vitro. Particulars: human. How it is done: (§1) GLPG1205 was incubated with monolayer cultures of fresh human hepatocytes from 3 individual donors for 24 hours (messenger ribonucleic acid [mRNA] analysis) or 48 hours (enzyme activity) at 6 different concentrations: 0.5, 1, 5, 10, 50, and 100 μM (0.19, 0.38, 1.89, 3.78, 18.9, and 37.8 μg/mL, respectively). All incubations contained 0.4% dimethylsulfoxide (DMSO). Incubation with 50 μM omeprazole containing 0.1% DMSO was used as a positive control. Incubations with 0.1% and 0.4% DMSO alone were used as negative controls.
Following a 48‐hour incubation period, an enzymatic assay assessed phenacetin O‐deethylase (a CYP1A2 substrate) activity by measuring the CYP1A2‐dependent metabolite acetaminophen in supernatants. Acetaminophen was quantified using liquid chromatography coupled with tandem mass spectrometry (LC‐MS/MS).
(§2) A concentration‐dependent increase in mRNA of <100% was considered a negative finding when the increase in mRNA was less than 20% of the response of the positive control.
(§3) Incubation for CYP1A2 Induction Experiment The incubations for enzyme activity measurements were performed with cell monolayers in 96-well plates and the incubations for mRNA measurements were performed with cell monolayers in 24-well plates.^3
GLPG1205 was incubated with monolayer culture of human fresh hepatocytes from 3 individual donors for 24 or 48 hours, for messenger ribonucleic acid (mRNA) analysis and enzyme activity, respectively, at 6 different concentrations (n = 3): 0.1, 0.5, 1, 5, 10 and 50 µM (0.038, 0.19, 0.38, 1.89, 3.78 and 18.9 µg/mL, respectively). […] Incubation with 50 µM omeprazole containing 0.1% DMSO was used as a positive control. Incubations with 0.1% and 0.4% DMSO alone were used as negative controls. The CMI was William’s E medium with hepatocytes induction additives. Cells were cultured at 37°C in a humidified carbon dioxide/air (5%/95%) atmosphere. Culture media were renewed daily in all wells.
Enzymatic Assay At the end of the 48-hour incubation period, CYP1A2 enzyme activity was measured in intact cells by incubating with phenacetin, a probe substrate. Cells were first washed with minimum essential medium (MEM) devoid of phenol red to remove remaining test compounds or reference inducers and were then incubated for 2 hours at 37°C with 200 µM phenacetin in MEM devoid of phenol red and containing 0.1% DMSO. Assessment of phenacetin O-deethylase activity in supernatants was carried out by measuring the CYP1A2-dependent metabolite acetaminophen. Cell protein content was also determined; protein content was measured according to the bicinchoninic acid method^4 and calculated using a bovine serum albumin standard curve.
A 2-fold dilution of the specimens in a solution of 1 µM D4-acetaminophen in water with 0.1% formic acid was performed and 20 µL were injected into the LC-MS/MS system. The mobile phase consisted of ammonium acetate 5 mM in water (A) and formic acid 0.3% in acetonitrile/methanol, 50/50, v/v. The following gradient was applied with a 1.5 mL/min flow rate and an oven temperature of 40°C: 98% A from 0 minutes; 70% A from 2.5 minutes; 1% A from 2.6 minutes; 1% A from 3.2 minutes; 98% A from 3.25 minutes; 98% A from 4.5 minutes. In this condition, the retention time of acetaminophen was approximately 2.33 minutes. Controls were performed by injecting calibration standards at the beginning and end of each run. […]

The subject of data set [3] is CYP1A2. In words: in vitro. The following applies: human. How it is done: as §1
(§4) Following a 24‐hour incubation, CYP1A2 mRNA was quantified using real‐time quantitative reverse transcription polymerase chain reaction.
as §2, §3
(§5) GLPG1205 was incubated with monolayer culture of human fresh hepatocytes from 3 individual donors for 24 or 48 hours, for messenger ribonucleic acid (mRNA) analysis and enzyme activity, respectively, at 6 different concentrations (n = 3): 0.1, 0.5, 1, 5, 10 and 50 µM (0.038, 0.19, 0.38, 1.89, 3.78 and 18.9 µg/mL, respectively). […]
(§6) mRNA Analysis At the end of the 24-hour incubation period, the incubation medium was removed and the cell monolayers were washed twice with 500 µL phosphate buffered saline. […] Total RNA and RNA quality were assessed by measuring 260/280 nm and 260/230 nm absorbance ratios. RNA concentrations were used to normalize the quantity of RNA used for the reverse transcriptase assay. […]
(§7) Quantitative real-time reverse transcription polymerase chain reaction (qRT-PCR) was performed using SYBRGreen® validated primers for CYP1A2.^3 The housekeeping gene glyceraldehyde 3-phosphate dehydrogenase (GAPDH) was analyzed in parallel as the control gene. […]
(§8) The fold induction (FI) was determined as: […]
This is another data set of the same source.

For the next data set, the system named is CYP1A2 mRNA. The data set can be described thus: in vitro. Particulars: human, hepatocytes, 24 h. How it is done: as §1, §4, §2, §3, §5, §6, §7, §8
The subject of another data set is CYP3A4. Further details: method as in PMID 33960725, PMID 29780235. Particulars: cortisol:6β‐hydroxycortisol ratio in urine; cited from earlier work.
The mark [4] stands for this setting: Phenacetin O-deethylase activity, fold induction.

Values after ≈ are worked out from the molar mass of the structure shown.

Regarding `O=c1nc(OC[C@@H]2COCCO2)cc2n1CCc1cc(C#CC3CC3)ccc1-2` [GLPG1205, 9‐cyclopropylethynyl‐2‐[(S)‐1‐(1,4)dioxan‐2‐ylmethoxy]‐6,7‐dihydropyrimido[6,1‐a]isoquinolin‐4‐one], the solubility at 24 h in data set [1] turned out to be 100 µM (≈ 37.8 µg/mL). In the data set with CYP1A2 [2] (48 h, 50 µM), the “Phenacetin O-deethylase activity, fold induction” value is 0.367 ± 0.021 fold. Besides, in the data set with CYP1A2 [2] (setting [4]), the fold induction at 48 h, 0.1 µM was found to be 1.64 ± 0.256 and the fold induction at 48 h, 50 µM was determined as 0.335 ± 0.033. In addition, in the data set with CYP1A2 [2] (hepatocytes, 48 h), the “increases in CYP1A2 activity compared with the negative control (0.4% DMSO)” value is no more than 2 fold and the “increases in CYP1A2 activity, % of the positive control (omeprazole)” value is reported as “lower than 40%”. In the data set with CYP1A2 [3] (CYP1A2 mRNA, fold induction, mean (SD)), the fold induction at 24 h, 1 µM turned out to be 6.12 ± 0.65. Also, the fold induction at 24 h, 1 µM with CYP1A2 [3] (maximum fold induction of CYP1A2 mRNA) was 6. In the data set on CYP1A2 mRNA, the “increase in CYP1A2 mRNA expression compared with the vehicle control” value is “greater than 100%”. For the same compound, in the data set with CYP3A4, the CYP3A4 induction result is given as “did not induce CYP3A4”.
